This note sets out measurements from ChEMBL document CHEMBL3351573, “Synthesis and cholinesterase inhibition of cativic acid derivatives” (Bioorg Med Chem, 2014).

SMILES strings stand for the structures. Some results are limits rather than exact numbers.

As a reminder, the IC50 is the concentration that gives 50% inhibition. One may read the Ki as the equilibrium dissociation constant of an inhibitor or competing ligand from its target.

The nature of data set [1]: Selectivity index, ratio of IC50 for horse serum BChE to IC50 for Torpedo californica AChE.
Data set [2] deals with T1, Acetylcholinesterase (Torpedo californica, UniProt P04058).
T1 sequence (P04058 whole entry): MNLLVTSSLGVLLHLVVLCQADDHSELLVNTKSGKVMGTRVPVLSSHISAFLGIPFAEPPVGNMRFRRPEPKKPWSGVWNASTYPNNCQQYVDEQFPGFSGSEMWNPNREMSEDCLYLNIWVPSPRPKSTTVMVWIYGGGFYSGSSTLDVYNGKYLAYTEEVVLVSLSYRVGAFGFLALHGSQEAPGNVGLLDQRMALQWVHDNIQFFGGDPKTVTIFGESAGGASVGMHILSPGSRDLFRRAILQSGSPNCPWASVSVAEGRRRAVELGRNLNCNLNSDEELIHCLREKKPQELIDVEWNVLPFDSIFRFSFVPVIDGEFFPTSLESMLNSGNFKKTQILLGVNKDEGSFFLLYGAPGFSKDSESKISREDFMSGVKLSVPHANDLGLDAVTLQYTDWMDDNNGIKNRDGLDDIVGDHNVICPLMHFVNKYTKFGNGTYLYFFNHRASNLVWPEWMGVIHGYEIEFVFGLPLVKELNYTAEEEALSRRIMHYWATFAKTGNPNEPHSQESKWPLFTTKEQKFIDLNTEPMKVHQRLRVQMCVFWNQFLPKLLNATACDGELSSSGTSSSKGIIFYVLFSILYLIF
Description: Inhibition of Torpedo californica AChE by spectrophotometry based Ellman's method
The target of the next data set is Cholinesterase (Equus caballus, UniProt P81908).
Sequence of Cholinesterase (P81908 whole entry): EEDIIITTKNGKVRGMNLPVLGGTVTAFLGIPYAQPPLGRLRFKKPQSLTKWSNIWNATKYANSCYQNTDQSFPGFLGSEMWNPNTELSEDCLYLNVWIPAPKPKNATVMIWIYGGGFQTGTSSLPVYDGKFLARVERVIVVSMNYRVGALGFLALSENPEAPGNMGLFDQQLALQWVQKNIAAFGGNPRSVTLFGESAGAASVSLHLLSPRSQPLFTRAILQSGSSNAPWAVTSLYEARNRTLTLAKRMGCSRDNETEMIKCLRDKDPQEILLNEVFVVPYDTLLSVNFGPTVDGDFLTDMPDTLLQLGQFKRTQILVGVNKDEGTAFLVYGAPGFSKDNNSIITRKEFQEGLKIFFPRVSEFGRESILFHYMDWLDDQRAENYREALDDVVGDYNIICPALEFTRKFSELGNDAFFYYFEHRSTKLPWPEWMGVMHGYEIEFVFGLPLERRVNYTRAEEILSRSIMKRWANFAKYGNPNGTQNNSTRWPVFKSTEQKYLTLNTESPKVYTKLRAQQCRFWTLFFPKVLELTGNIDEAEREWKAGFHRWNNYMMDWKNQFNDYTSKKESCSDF
In data set [3] the target is T1, Acetylcholinesterase. The data set is described as follows: Mixed type inhibition of Torpedo californica AChE by Lineweaver-Burk plot. The arrangement: species or system Tetronarce californica.
Data set [4] has as its target Acetylcholinesterase (Homo sapiens) (UniProt P22303). In words: Inhibition of AChE in human SH-SY5Y cells assessed as enzyme activity at 5 uM after 1 hr by Ellman's method. In kind it is cell-based. The arrangement: scale not given: the % may be the effect or the level left. (DTNB colorimetry detects thiols as they appear.)
Data set [5] has the same target. In words: Inhibition of AChE in human SH-SY5Y cells assessed as enzyme activity at 1 uM after 1 hr by Ellman's method. The arrangement: scale not given: the % may be the effect or the level left. In kind it is cell-based.
Data set [6] is described as follows: Cytotoxicity against human SH-SY5Y cells assessed as LDH release at 1 uM after 1 hr (reference value: -0.78 +/- 3.50%). In kind it is cell-based. (LDH leaks from cells whose membrane has failed.)
Data set [7] is described as follows: Cytotoxicity against human SH-SY5Y cells assessed as LDH release at 5 uM after 1 hr (reference value: -0.78 +/- 3.50%). It is filed as cell-based.
Data set [8] in a line: Cytotoxicity against human SH-SY5Y cells assessed as LDH release at 1 uM after 24 hrs (reference value: 0.02 +/- 0.35%). It is filed as cell-based.
Data set [9] can be described thus: Cytotoxicity against human SH-SY5Y cells assessed as LDH release at 5 uM after 24 hrs (reference value: 0.02 +/- 0.35%). It is filed as cell-based.
Data set [10] is described as follows: Cytotoxicity against human SH-SY5Y cells assessed as change in cell morphology at 1 to 5 uM after 1 hr to 24 hrs by phase contrast microscopy. In kind it is cell-based.

Sequence of Acetylcholinesterase (Homo sapiens) (P22303 whole entry): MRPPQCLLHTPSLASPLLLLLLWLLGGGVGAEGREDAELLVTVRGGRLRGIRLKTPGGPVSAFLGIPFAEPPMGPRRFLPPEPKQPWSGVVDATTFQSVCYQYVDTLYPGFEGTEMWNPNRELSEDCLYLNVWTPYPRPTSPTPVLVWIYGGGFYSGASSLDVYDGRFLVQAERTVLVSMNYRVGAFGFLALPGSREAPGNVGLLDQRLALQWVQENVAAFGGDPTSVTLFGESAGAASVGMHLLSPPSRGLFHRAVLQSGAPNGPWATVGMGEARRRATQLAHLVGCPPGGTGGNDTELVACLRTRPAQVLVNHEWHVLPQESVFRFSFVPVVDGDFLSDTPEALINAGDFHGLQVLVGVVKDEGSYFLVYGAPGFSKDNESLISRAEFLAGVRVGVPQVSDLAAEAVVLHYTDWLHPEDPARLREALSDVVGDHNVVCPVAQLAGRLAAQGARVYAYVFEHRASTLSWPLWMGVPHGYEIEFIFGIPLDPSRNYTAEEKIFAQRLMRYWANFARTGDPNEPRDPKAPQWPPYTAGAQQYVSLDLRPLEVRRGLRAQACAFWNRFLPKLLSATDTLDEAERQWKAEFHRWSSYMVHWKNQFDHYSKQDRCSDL

Consider `C[C@@H](CC[C@H]1C(CO)=CC[C@H]2C(C)(C)CCC[C@]12C)CC(=O)OCCCCCN1CCCCC1`, for which the Ratio IC50 in [1] amounted to 1.7. The concentration for half-maximal inhibition (IC50) against Acetylcholinesterase [2] was 14.7 µM; at Cholinesterase, 24.8 µM.
The like results for `C[C@@H](CC[C@H]1C(CO)=CC[C@H]2C(C)(C)CCC[C@]12C)CC(=O)OCCCCN1CCCCC1` were, in that order, 2.5, 15 µM and 37.1 µM.
On to `C[C@@H](CC[C@H]1C(CO)=CC[C@H]2C(C)(C)CCC[C@]12C)CC(=O)OCCCCN1CCOCC1`, for which the IC50 against Acetylcholinesterase [2] and at Cholinesterase was > 50 µM in each case.
Consider `C[C@@H](CC[C@H]1C(CO)=CC[C@H]2C(C)(C)CCC[C@]12C)CC(=O)OCCN1CCCCC1`, for which the IC50 against Acetylcholinesterase [2] and against Cholinesterase was > 50 µM each time.
With `C[C@@H](CC[C@H]1C(CO)=CC[C@H]2C(C)(C)CCC[C@]12C)CC(=O)OCCCCCCN1CCCCC1`, the Ratio IC50 in data set [1] worked out at 0.7. Moreover, the IC50 on Acetylcholinesterase [2] came out at 14.5 µM; against Cholinesterase, 10.5 µM.
In the case of `CCN(CC)CCCOC(=O)C[C@@H](C)CC[C@H]1C(CO)=CC[C@H]2C(C)(C)CCC[C@]12C`, the Ratio IC50 in data set [1] amounted to 1.5. The concentration for half-maximal inhibition (IC50) is 11.8 µM against Acetylcholinesterase [2] and 18.1 µM against Cholinesterase.
With `C[C@@H](CC[C@H]1C(CO)=CC[C@H]2C(C)(C)CCC[C@]12C)CC(=O)OCCCN1CCCCC1`, in data set [1], the Ratio IC50 is 5.6. The IC50 at Acetylcholinesterase [2] was determined as 6.2 µM; on Cholinesterase, 34.7 µM.
On to `C[C@@H](CC[C@H]1C(CO)=CC[C@H]2C(C)(C)CCC[C@]12C)CC(=O)OCCCCCN1CCOCC1`, for which the concentration for half-maximal inhibition (IC50) at Acetylcholinesterase [2] and on Cholinesterase was > 50 µM each time.
As for `CCN(CC)CCCCCOC(=O)C[C@@H](C)CC[C@H]1C(CO)=CC[C@H]2C(C)(C)CCC[C@]12C`, the Ratio IC50 in [1] was determined as 2. The IC50 against Acetylcholinesterase [2] was 13.8 µM; at Cholinesterase, 27.2 µM.
Take `C[C@@H](CC[C@H]1C(CO)=CC[C@H]2C(C)(C)CCC[C@]12C)CC(=O)OCCN1CCOCC1`: the IC50 against Acetylcholinesterase [2] and at Cholinesterase was > 50 µM each time.
Turning to `C[C@@H](CC[C@H]1C(CO)=CC[C@H]2C(C)(C)CCC[C@]12C)CC(=O)OCCCCCCN1CCCC1`, the Ratio IC50 in data set [1] amounted to 0.8. The figures for the IC50 at Acetylcholinesterase [2] and at Cholinesterase were 13.5 µM and 10.6 µM, respectively.
On the same counts, the results for `C[C@@H](CC[C@H]1C(CO)=CC[C@H]2C(C)(C)CCC[C@]12C)CC(=O)OCCN1CCCC1` are < 0.3, > 50 µM and 17 µM.
As to `C[C@@H](CC[C@H]1C(CO)=CC[C@H]2C(C)(C)CCC[C@]12C)CC(=O)OCCCCCN1CCCC1`, the Ratio IC50 in data set [1] was 4.1. Besides, the IC50 on Acetylcholinesterase [2] came to 5.5 µM; at Cholinesterase it was 22.1 µM.
On to `C[C@@H](CC[C@H]1C(CO)=CC[C@H]2C(C)(C)CCC[C@]12C)CC(=O)OCCCCCCN1CCOCC1`, for which the IC50 against Acetylcholinesterase [2] and at Cholinesterase was > 50 µM in each case.
For the molecule `CCN(CC)CCCCOC(=O)C[C@@H](C)CC[C@H]1C(CO)=CC[C@H]2C(C)(C)CCC[C@]12C`, the Ratio IC50 in data set [1] is 1.8. The values for the IC50 on Acetylcholinesterase [2] and against Cholinesterase were 9.4 µM and 23.6 µM, respectively.
As for `C[C@@H](CC[C@H]1C(CO)=CC[C@H]2C(C)(C)CCC[C@]12C)CC(=O)OCCCN1CCOCC1`, the IC50 on Acetylcholinesterase [2] and against Cholinesterase was > 50 µM each time.
Take `CCN(CC)CCCCCCOC(=O)C[C@@H](C)CC[C@H]1C(CO)=CC[C@H]2C(C)(C)CCC[C@]12C`: the Ratio IC50 in data set [1] worked out at 0.9. For the same molecule, the half-inhibitory concentration (IC50) against Acetylcholinesterase [2] stood at 17.8 µM; against Cholinesterase, 15.2 µM.
For the molecule `C[C@@H](CC[C@H]1C(CO)=CC[C@H]2C(C)(C)CCC[C@]12C)CC(=O)OCCCCN1CCCC1`, in data set [1], the Ratio IC50 was 3.2. At Acetylcholinesterase [3], the Ki was determined as 4.6 µM. Further, the Activity in data set [4] was 30.4%; in [5], 67.3%; in data set [6], 1.34%; in [7] it was 2.33%; in data set [8], -0.02%; in data set [9], 0.11%. Also, the Activity result in data set [10] is “Non-toxic”. For the same molecule, the IC50 against Acetylcholinesterase [2] worked out at 3.2 µM; on Cholinesterase it was 10.3 µM.
For the molecule `CCN(CC)CCOC(=O)C[C@@H](C)CC[C@H]1C(CO)=CC[C@H]2C(C)(C)CCC[C@]12C`, the Ratio IC50 in data set [1] was < 0.8. For the same molecule, the IC50 against Acetylcholinesterase [2] is > 50 µM; at Cholinesterase, 39.9 µM.
On the same counts, the results for `C[C@@H](CC[C@H]1C(CO)=CC[C@H]2C(C)(C)CCC[C@]12C)CC(=O)O` are 8.1, 21.1 µM and 171 µM.
With `C[C@@H](CC[C@H]1C(CO)=CC[C@H]2C(C)(C)CCC[C@]12C)CC(=O)OCCCN1CCCC1`, the Ratio IC50 in data set [1] was 1.3. Further, the IC50 against Acetylcholinesterase [2] was determined as 33.8 µM; at Cholinesterase, 43.8 µM.
